Source: publication PMC12388126, “Photochemically Assisted Synthesis of Thienobenzotriazole-Based Dual Cholinesterase Inhibitors” (Molecules, 2025)
Like-named read-outs stand apart in the source and are kept apart here.

Columns and labels:
[1] = target: acetylcholinesterase (AChE) (Electrophorus electricus, UniProt O42275); experiment: AChE inhibition, modified Ellman method; type: biochemical; conditions: for inhibition at 50 µM / inhibition at 100 µM / inhibition at 250 µM: read-out: AChE Inhibition (%); for IC50: relative IC50 from nonlinear regression, tested 0.01–250 μM
Sequence of acetylcholinesterase (AChE) (O42275 24-633): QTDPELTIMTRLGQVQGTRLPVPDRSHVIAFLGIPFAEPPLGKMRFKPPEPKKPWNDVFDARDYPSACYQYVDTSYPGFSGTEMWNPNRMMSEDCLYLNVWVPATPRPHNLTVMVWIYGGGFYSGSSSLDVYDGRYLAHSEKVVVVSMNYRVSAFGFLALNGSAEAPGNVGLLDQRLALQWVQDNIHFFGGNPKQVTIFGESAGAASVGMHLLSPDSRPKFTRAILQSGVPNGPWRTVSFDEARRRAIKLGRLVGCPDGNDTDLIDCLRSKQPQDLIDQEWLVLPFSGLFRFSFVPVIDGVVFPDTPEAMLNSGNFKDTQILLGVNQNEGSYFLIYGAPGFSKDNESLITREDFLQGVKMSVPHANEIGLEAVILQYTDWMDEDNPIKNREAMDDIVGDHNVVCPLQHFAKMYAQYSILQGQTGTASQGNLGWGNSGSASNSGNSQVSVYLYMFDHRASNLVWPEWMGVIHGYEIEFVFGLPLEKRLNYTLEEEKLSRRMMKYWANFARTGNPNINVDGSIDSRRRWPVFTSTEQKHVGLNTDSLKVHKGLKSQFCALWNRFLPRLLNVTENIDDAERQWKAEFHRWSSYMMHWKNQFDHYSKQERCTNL
Experimental: (§1) Building on the previously promising in vitro results of thienobenzo-1,2,3-triazolinium salts against cholinesterases, research was extended to a series of structurally related bromide salts. The inhibitory effects of a new set of triazolinium salts (1–4, 7–11, 14–17) on the activities of acetylcholinesterase (AChE) and butyrylcholinesterase (BChE) are summarized in Table 1. Their inhibitory activity was assessed using a modified Ellman method over a wide concentration range (0.01–250 μM). The IC50 values listed in Table 1 are relative IC50 values, obtained directly from the nonlinear regression analysis of the inhibition curves under defined test conditions. For reference, the inhibitory effect at the highest tested concentration is also reported. The results were compared with galantamine, a well-known cholinesterase inhibitor used in the treatment of Alzheimer’s disease.
(§2) The inhibitory effects of the new synthesized thiabenzo-1,2,3-triazolinium bromide salts, 1–4, 7–11, and 14–17, on acetylcholinesterase (AChE) and butyrylcholinesterase (BChE) activity were evaluated using the modified Ellman’s method.
(§3) DTNB, ATChI, and BTChI were prepared in 50 mM Tris buffer (pH 8.0), while the enzymes were made in 20 mM Tris buffer (pH 7.5). Using a 96-well microplate reader (Agilent, BioTek 800TS, Santa Clara, CA, USA), cholinesterase activity was assessed. Amounts of 180 μL of 50 mM Tris buffer, 10 μL of tested solutions with final concentrations ranging from 0.01 to 250 μM, and 10 μL of an enzyme with a final concentration of 0.03 U/mL were added to the microplate well, which was then left to incubate for 15 min at room temperature. Following incubation, 10 μL of DTNB (final concentration: 0.3 mM) and […] of ATChI/BTChI (final concentration: 0.5 mM) were added to the reaction mixture. After four minutes, the absorbance was measured at 405 nm. Non-enzymatic hydrolysis was assessed as a blank for the control measurement in the absence of inhibitors and enzymes. The samples were tested using the non-enzymatic hydrolysis procedure with an additional inhibitor as a blank. The enzyme was swapped out for the same amount of buffer.
(§4) The inhibition % was determined using the following formula: Inhibition (%) = [(AC − AT)/AC] × 100, where AC is the activity of the enzyme without a test sample and AT is the activity of the enzyme with a test sample. The mean values ± standard deviation are used to illustrate the results. Inhibitory activity of ethanol was deducted from each sample. A nonlinear fit of compound concentration values vs. response was used to determine the IC50 values. Each trazolinium salt was tested against both enzymes in triplicate.

[2] = target: T1, butyrylcholinesterase (BChE) (Equus caballus, UniProt P81908); experiment: BChE inhibition, modified Ellman method; type: biochemical
T1 construct: BChE (extracted from equine serum); purchased Sigma-Aldrich; host or cells: equine serum (natural source)
T1 sequence (P81908 whole entry): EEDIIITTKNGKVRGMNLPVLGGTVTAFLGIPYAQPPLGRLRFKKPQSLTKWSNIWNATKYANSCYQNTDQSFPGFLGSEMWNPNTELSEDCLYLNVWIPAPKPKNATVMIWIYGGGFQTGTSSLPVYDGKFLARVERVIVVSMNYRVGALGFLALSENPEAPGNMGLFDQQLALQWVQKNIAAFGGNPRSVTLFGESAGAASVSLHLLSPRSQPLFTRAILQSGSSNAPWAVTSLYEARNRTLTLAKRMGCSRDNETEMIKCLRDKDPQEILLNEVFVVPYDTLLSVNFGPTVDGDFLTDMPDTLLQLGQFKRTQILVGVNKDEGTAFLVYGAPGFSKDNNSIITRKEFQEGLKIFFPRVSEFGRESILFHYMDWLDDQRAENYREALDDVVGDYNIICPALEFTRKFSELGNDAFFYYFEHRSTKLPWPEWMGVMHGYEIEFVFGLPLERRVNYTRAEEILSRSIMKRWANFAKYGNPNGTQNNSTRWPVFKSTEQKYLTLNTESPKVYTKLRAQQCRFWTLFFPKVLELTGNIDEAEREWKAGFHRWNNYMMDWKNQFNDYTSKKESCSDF
Experimental: as §1, §2, §3, §4

[3] = tested on: LPS-stimulated TNFα production in PBMCs; experiment: TNFα production in LPS-stimulated PBMCs (ELISA); type: cell-based, human
Experimental: The potential anti-inflammatory activity of compounds 1–4, 7–11, and 14–17 was also evaluated in vitro by the measurement of TNFα production in LPS-stimulated PBMCs. […] At lower concentrations that were not affecting cell viability, LPS-induced TNFα production was not changed. […] Compound 17 was active only at the highest tested concentration.
The effect of compounds on tumor necrosis factor alpha (TNFα) production in lipopolysaccharide (LPS)-stimulated peripheral blood mononuclear cells (PBMCs) was evaluated as described previously. […]
(§5) For cell viability evaluation, CellTiter-Glo reagent was used (Promega, Radoboj, Croatia) according to the manufacturer’s instructions. […] TNFα concentration in supernatants was measured by ELISA using antibodies and recombinant human TNFα protein (standard) from R&D Systems. […] Finally, after the plates were incubated with streptavidin HRP (Invitrogen, Thermo Fisher Scientific, Waltham, MA, USA), chemiluminescence ELISA Substrate (Roche, Zagreb, Croatia) was added to the wells and luminescence was measured using EnVision 2105 multilabel reader (Revvity, Waltham, MA, USA). Concentrations of TNFα in the supernatants were calculated using measured luminescence by interpolation from standard curves. […]

PBMCs = experiment: Cell viability of PBMCs (CellTiter-Glo); type: cell-based; conditions: LPS-stimulated PBMCs, 24 h
Experimental: The effect of compounds on tumor necrosis factor alpha (TNFα) production in lipopolysaccharide (LPS)-stimulated peripheral blood mononuclear cells (PBMCs) was evaluated as described previously. In short, PBMCs were isolated from buffy coats obtained from healthy adult volunteers and resuspended in RPMI1640 medium (Capricorn Scientific, Ebsdorfergrundu, Germany) supplemented with 10% heat-inactivated FBS (Biowest, Nuailléu, France), 1% GlutaMAX (Gibco, St. Louis, MO, USA), and 1% Antibiotic-Antimycotic (Gibco, St. Louis, MO, USA). PBMCs were seeded as 2 × 10^5 per well of a 96-well plate. […]
as §5

BChE = tested on: BChE; parameters: method as in PMID 40732321; conditions: cited from earlier work
[4] = tested on: LPS-induced TNF-α production; parameters: method as in PMID 40732321; conditions: read-out: IC50, inhibition of LPS-induced TNF-α production; cited from earlier work
[5] = relative IC50 from nonlinear regression, tested 0.01–250 μM, read-out: BChE IC50

Compound | inhibition at 50 µM [1] [%] | IC50 [1] [nM] | inhibition at 25 µM ([2]; read-out: BChE Inhibition (%)) [%] | IC50 [2, 5] [nM] | also measured
Cc1cccc(Cn2n[n+](Cc3ccccc3)c3ccc4sccc4c32)c1 [Compound 1, 3-benzyl-1-(3-methylbenzyl)-1H-thieno[3′,2′:3.4]benzo[1.2-d][1.2,3]triazol-3-ium bromide] | 78.6 ± 0.5 | 6300 | 83.9 ± 0.2 | 400 | –
Cc1ccc(C[n+]2nn(Cc3cccc(C)c3)c3c4ccsc4ccc32)cc1 [Compound 2, 1-(3-methylbenzyl)-3-(4-methylbenzyl)-1H-thieno[3′,2′:3.4]benzo[1.2-d][1.2,3]triazol-3-ium bromide] | 82.1 ± 4.2 | 4100 | – | 300 | inhibition at 2.5 µM ([2]; read-out: BChE Inhibition (%)): 77.6 ± 0.3%
Cc1cccc(Cn2n[n+](Cc3ccc(I)cc3)c3ccc4sccc4c32)c1 [Compound 3, 3-(4-iodobenzyl)-1-(3-methylbenzyl)-1H-thieno[3′,2′:3.4]benzo[1.2-d][1.2,3]triazol-3-ium bromide] | 76.7 ± 0.5 | 5900 | – | 700 | inhibition at 50 µM ([2]; read-out: BChE Inhibition (%)): 84.9 ± 3.6%
Clc1cccc(Cn2n[n+](Cc3ccc(I)cc3)c3ccc4sccc4c32)c1 [Compound 4, 1-(3-chlorobenzyl)-3-(4-iodobenzyl)-1H-thieno[3′,2′:3.4]benzo[1.2-d][1.2,3]triazol-3-ium bromide] | 74.6 ± 5 | 14200 | 83.2 ± 0.9 | 800 | –
COc1cccc(Cn2n[n+](Cc3ccc(Cl)cc3)c3ccc4sccc4c32)c1 [Compound 7, 3-(4-chlorobenzyl)-1-(3-methoxybenzyl)-1H-thieno[3′,2′:3.4]benzo[1.2-d][1.2,3]triazol-3-ium bromide] | – | 11800 | – | 1000 | inhibition at 100 µM [1]: 79.4 ± 4.9%; inhibition at 10 µM ([2]; read-out: BChE Inhibition (%)): 78.2 ± 0.4%
Cc1ccc(Cn2n[n+](Cc3ccccc3)c3ccc4sccc4c32)cc1 [Compound 8, 3-benzyl-1-(4-methylbenzyl)-1H-thieno[3′,2′:3.4]benzo[1.2-d][1.2,3]triazol-3-ium bromide] | 80.7 ± 2.3 | 2600 | – | 400 | inhibition at 10 µM ([2]; read-out: BChE Inhibition (%)): 83.6 ± 1%
Cc1ccc(Cn2n[n+](Cc3ccc(C)cc3)c3ccc4sccc4c32)cc1 [Compound 9, 1.3-bis(4-methylbenzyl)-1H-thieno[3′,2′:3.4]benzo[1.2-d][1.2,3]triazol-3-ium bromide] | 78.7 ± 0.6 | 5700 | 76.6 ± 0.4 | 3500 | –
Cc1ccc(Cn2n[n+](Cc3ccc(Cl)cc3)c3ccc4sccc4c32)cc1 [Compound 10, 3-(4-chlorobenzyl)-1-(4-methylbenzyl)-1H-thieno[3′,2′:3.4]benzo[1.2-d][1.2,3]triazol-3-ium bromide] | – | 6500 | 79.9 ± 1.1 | 1500 | inhibition at 100 µM [1]: 81.9 ± 0.6%
Cc1ccc(Cn2n[n+](Cc3ccc([N+](=O)[O-])cc3)c3ccc4sccc4c32)cc1 [Compound 11, 1-(4-methylbenzyl)-3-(4-nitrobenzyl)-1H-thieno[3′,2′:3.4]benzo[1.2-d][1.2,3]triazol-3-ium bromide] | 83.6 ± 2.1 | 3200 | 81.1 ± 1.7 | 2700 | –
CC=Cn1n[n+](Cc2ccccc2)c2ccc3sccc3c21 [Compound 14, 3-benzyl-1-(prop-1-en-1-yl)-1H-thieno[3′,2′:3.4]benzo[1.2-d][1.2,3]triazol-3-ium bromide] | – | 4300 | 80.4 ± 2.9 | – | inhibition at 100 µM [1]: 84.2 ± 0.5%; IC50 [2]: 1000 nM
CC=Cn1n[n+](Cc2ccc(C)cc2)c2ccc3sccc3c21 [Compound 15, 3-(4-methylbenzyl)-1-(prop-1-en-1-yl)-1H-thieno[3′,2′:3.4]benzo[1.2-d][1.2,3]triazol-3-ium] | – | 14400 | – | 900 | inhibition at 250 µM [1]: 82.3 ± 0.8%; inhibition at 50 µM ([2]; read-out: BChE Inhibition (%)): 84 ± 0.7%
CC=Cn1n[n+](Cc2ccc(Cl)cc2)c2ccc3sccc3c21 [Compound 16, 3-(4-chlorobenzyl)-1-(prop-1-en-1-yl)-1H-thieno[3′,2′:3,4]benzo[1,2-d][1–3]triazol-3-ium] | – | 5400 | – | 2300 | inhibition at 250 µM [1]: 82.6 ± 1.1%; inhibition at 100 µM ([2]; read-out: BChE Inhibition (%)): 84.8 ± 0.8%
CC=Cn1n[n+](Cc2ccc([N+](=O)[O-])cc2)c2ccc3sccc3c21 [Compound 17, 3-(4-nitrobenzyl)-1-(prop-1-en-1-yl)-1H-thieno[3′,2′:3,4]benzo[1,2-d][1–3]triazol-3-ium] | – | 63800 | – | 11400 | classification as AChE inhibitor ([1]; in words): weak AChE inhibitor; inhibition at 100 µM [1]: 62.6 ± 5.3%; effect on LPS-stimulated TNFα production ([3]; PBMCs, starting concentration 100 µM, three-fold dilutions): slightly inhibited LPS-stimulated TNFα production; inhibition at 100 µM ([2]; read-out: BChE Inhibition (%)): 85.5 ± 0.5%; effect on cell viability (PBMCs): no effect on cell viability
C=CCn1n[n+](Cc2ccccc2)c2ccc3sccc3c21 [E] | – | – | – | – | IC50 (BChE): 98 nM
Cc1ccc(C[n+]2nn(Cc3cccc(F)c3)c3c4ccsc4ccc32)cc1 [F] | – | – | – | – | IC50 [4]: 660 nM
C[C@@H]1C[C@H]2[C@@H]3CCC4=CC(=O)C=C[C@]4(C)[C@@]3(F)[C@@H](O)C[C@]2(C)[C@@]1(O)C(=O)CO [dexamethasone, reference compound] | – | – | – | – | IC50 ([3]; Homo sapiens, PBMC, PBMCs from two donors, read-out: IC50, inhibition of LPS-stimulated TNFα production): 3.5 nM
